Here are results for 32 compounds from patent publication US9376418B2, “Substituted pyridine spleen tyrosine kinase (SYK) inhibitors” (Merck Sharp & Dohme Corp., priority 2012, dated 2016).

Each structure is given as a SMILES string. Where only a bound is given, the exact number is not on record here.

For this test, the target named is T1, recombinant human GST-SYK (Homo sapiens, UniProt P43405).
T1 construct: purchased Carna Biosciences 08-176
The test is described as follows: Homogeneous Time-Resolved Fluorescence (HTRF) assay for the recombinant human Syk enzyme. Type of test: biochemical. The note with it: HTRF assay, recombinant human GST-SYK; IC50 given as class symbols; read-out: rhSYK Activity. The method, boiled down:
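GST-hSYK ([…]) was preincubated with inhibitor (0.1% DMSO final) for 10 minutes at room temperature in 15 mM Tris-HCl pH 7.5, 0.01% tween 20, 2 mM DTT. Biotinylated peptide (250 nM), 5 mM magnesium and 25 μM ATP started a 45-minute room-temperature reaction, read by time-resolved fluorescence.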
In general terms: Time-resolved FRET reads energy transfer from a long-lived donor to a nearby acceptor.
Turning to `Cc1cc(Nc2nccc(C(F)(F)F)n2)cc(-c2ccc(C(C)(O)C(F)(F)F)nc2)c1` (centres unmarked) [Example 2.115, 1,1,1-trifluoro-2-[5-(3-methyl-5-{[4-(trifluoromethyl)pyrimidin-2-yl]amino}phenyl)pyridin-2-yl]propan-2-ol], the IC50 lay in the range of 100 to 1000 nM. In the case of `Cc1cc(Nc2nccc(C(F)(F)F)n2)cc(-c2cnc(O)c(N)c2C)c1` [Example 2.51, 3-amino-4-methyl-5-(3-methyl-5-{[4-(trifluoromethyl)pyrimidin-2-yl]amino}phenyl)pyridin-2-ol] it was 100 to 1000 nM. For the compound `Cc1cc(Nc2nccc(C(F)(F)F)n2)cc(-c2ccc(N[C@@H](CCO)C(=O)O)nc2)c1` [Example 7.71, N-[5-(3-methyl-5-{[4-(trifluoromethyl)pyrimidin-2-yl]amino}phenyl)pyridin-2-yl]-L-homoserine], the IC50 is under 100 nM. Turning to `COCCNc1cncc(-c2cc(C)cc(Nc3nccc(C(F)(F)F)n3)c2)c1` [Example 15.1, N-(3-{5-[(2-Methoxyethyl)amino]pyridin-3-yl}-5-methylphenyl)-4-(trifluoromethyl)pyrimidin-2-amine], the IC50 was under 100 nM. `NC(=O)c1ccc(-c2cccc(Nc3nccc(C(F)(F)F)n3)c2)nc1` [Example 2.8, 6-(3-{[4-(trifluoromethyl)pyrimidin-2-yl]amino}phenyl)pyridine-3-carboxamide]: the IC50 is 100 to 1000 nM. The figure for `Cc1cc(Nc2nccc(C(F)(F)F)n2)cc(-c2ccc(C(=O)N(C)CCO)nc2)c1` [Example 16.6, N-(2-hydroxyethyl)-N-methyl-5-(3-methyl-5-{[4-(trifluoromethyl)pyrimidin-2-yl]amino}phenyl)pyridine-2-carboxamide] is under 100 nM; for `Cc1cc(Nc2nccc(C(F)(F)F)n2)cc(-c2ccc(CN3CCNC3=O)nc2)c1` [Example 17.1, 1-{[5-(3-Methyl-5-{[4-(trifluoromethyl)pyrimidin-2-yl]amino}phenyl)pyridin-2-yl]methyl}imidazolidin-2-one] it is under 100 nM; for `Cc1cc(Nc2nccc(C(F)(F)F)n2)cc(-c2cncc([C@]3(O)CC[C@@H](C(=O)O)CC3)c2)c1` [Example 9.69, cis-4-hydroxy-4-[5-(3-methyl-5-{[4-(trifluoromethyl)pyrimidin-2-yl]amino}phenyl)pyridin-3-yl]cyclohexanecarboxylic acid] it is under 100 nM. With `Cc1cc(Nc2nccc(C(F)(F)F)n2)cc(-c2ccc(C(=O)NCC(O)CCCl)nc2)c1` (centres unmarked) [Example 16.35, N-(4-chloro-2-hydroxybutyl)-5-(3-methyl-5-{[4-(trifluoromethyl)pyrimidin-2-yl]amino}phenyl)pyridine-2-carboxamide], the IC50 is 100 to 1000 nM. With `Cc1cc(Nc2nccc(C(F)(F)F)n2)cc(-c2ccc(N[C@H]3CCC(=O)NC3)nc2)c1` [Example 7.52, (5S)-5-{[5-(3-methyl-5-{[4-(trifluoromethyl)pyrimidin-2-yl]amino}phenyl)pyridin-2-yl]amino}piperidin-2-one], the IC50 was under 100 nM. With `Cc1cc(Nc2nccc(C(F)(F)F)n2)cc(-c2ccc(C(C)O)nc2)c1` (centres unmarked) [Example 2.138, 1-[5-(3-Methyl-5-{[4-(trifluoromethyl)pyrimidin-2-yl]amino}phenyl)pyridin-2-yl]ethanol], the IC50 was under 100 nM.

Turning to `Cc1cc(Nc2nccc(C(F)(F)F)n2)cc(-c2ccc(N(C)CC(=O)O)nc2)c1` [Example 7.39, N-methyl-N-[5-(3-methyl-5-{[4-(trifluoromethyl)pyrimidin-2-yl]amino}phenyl)pyridin-2-yl]glycine], the IC50 was under 100 nM.

In the case of `Cc1cc(Nc2nccc(C(F)(F)F)n2)cc(-c2ccnc(N3CCCC4(CCCO4)C3)c2)c1` (centres unmarked) [Example 15.28, N-{3-methyl-5-[2-(1-oxa-7-azaspiro[4.5]dec-7-yl)pyridin-4-yl]phenyl}-4-(trifluoromethyl)pyrimidin-2-amine], the IC50 was in the range of 100 to 1000 nM. As to `Cc1cc(Nc2nccc(C3CC3)n2)cc(-c2ccnc(CCC(=O)O)c2)c1` [Example 2.137, 3-(4-{3-[(4-cyclopropylpyimidin-2-yl)amino]-5-methylphenyl}pyridin-2-yl)propanoic acid], the IC50 was under 100 nM. As to `Cc1cc(Nc2nccc(C(F)(F)F)n2)cc(-c2ccc(NC(C)(c3nnn[nH]3)C(C)(C)C)nc2)c1` (centres unmarked) [Example 18.9, N-[3-methyl-5-(6-{[1,2,2-trimethyl-1-(1H-tetrazol-5-yl)propyl]amino}pyridin-3-yl)phenyl]-4-(trifluoromethyl)pyrimidin-2-amine], the IC50 was under 100 nM. Turning to `Cc1cc(Nc2nccc(C(F)(F)F)n2)cc(-c2ccnc(NC(C)(C)CO)c2)c1` [Example 15.51, 2-methyl-2-{[4-(3-methyl-5-{[4-(trifluoromethyl)pyrimidin-2-yl]amino}phenyl)pyridin-2-yl]amino}propan-1-ol], the IC50 was under 100 nM.

On to `Cc1cc(Nc2nccc(C(F)(F)F)n2)cc(-c2ccc(C(=O)O)nc2)c1` [Example 2.1, 5-(3-Methyl-5-{[4-(trifluoromethyl)pyrimidin-2-yl]amino}phenyl)pyridine-2-carboxylic acid], for which the IC50 is under 100 nM. The figure for `Cc1cc(Nc2nccc(C(F)(F)F)n2)cc(-c2ccc(C(=O)N3CC(=O)NC(=O)C3)nc2)c1` [Example 16.18, 4-{[5-(3-methyl-5-{[4-(trifluoromethyl)pyrimidin-2-yl]amino}phenyl)pyridin-2-yl]carbonyl}piperazine-2,6-dione] is under 100 nM; for `Cc1cc(Nc2nccc(C(F)(F)F)n2)cc(-c2ccc(C(O)C(F)(F)C(=O)O)nc2)c1` (centres unmarked) [Example 24.2, 2,2-Difluoro-3-hydroxy-3-[5-(3-methyl-5-{[4-(trifluoromethyl)pyrimidin-2-yl]amino}phenyl)pyridin-2-yl]propanoic acid] it is under 100 nM.

In the case of `COCC1CCN(c2ccc(-c3cc(C)cc(Nc4nccc(C(F)(F)F)n4)c3)cn2)C1` (centres unmarked) [Example 7.61, N-(3-{6-[3-(methoxymethyl)pyrrolidin-1-yl]pyridin-3-yl}-5-methylphenyl)-4-(trifluoromethyl)pyrimidin-2-amine], the IC50 was in the range of 100 to 1000 nM.

For the compound `COc1ccnc(Nc2cc(C)cc(-c3ccnc(CCC(=O)O)c3)c2)n1` [Example 2.131, 3-(4-{3-[(4-methoxypyrimidin-2-yl)amino]-5-methylphenyl}pyridin-2-yl)propanoic acid], the IC50 was under 100 nM. The figure for `Cc1cc(Nc2nccc(C(F)(F)F)n2)cc(-c2ccc(S(=O)(=O)NC3CC3)nc2)c1` [Example 21.2, N-cyclopropyl-5-(3-methyl-5-{[4-(trifluoromethyl)pyrimidin-2-yl]amino}phenyl)pyridine-2-sulfonamide] is 100 to 1000 nM. As for `Cc1cc(Nc2nccc(C(F)(F)F)n2)cc(-c2ccnc(N3CCN(C(=O)c4ccc5cc[nH]c5c4)CC3)c2)c1` [Example 15.39, N-(3-{2-[4-(1H-indol-6-ylcarbonyl)piperazin-1-yl]pyridin-4-yl}-5-methylphenyl)-4-(trifluoromethyl)pyrimidin-2-amine], the IC50 was in the range of 100 to 1000 nM.

For the compound `Cc1cc(Nc2nccc(C(F)(F)F)n2)cc(-c2ccc(N3CCC[C@H]3C(=O)O)nc2)c1` [Example 7.84, 1-[5-(3-methyl-5-{[4-(trifluoromethyl)pyrimidin-2-yl]amino}phenyl)pyridin-2-yl]-L-proline], the IC50 was under 100 nM. As for `Cc1cc(Nc2nccc(C(F)(F)F)n2)cc(-c2ccc(N3CCC4(CCN(C)C4=O)CC3)nc2)c1` [Example 7.15, 2-methyl-8-[5-(3-methyl-5-{[4-(trifluoromethyl)pyrimidin-2-yl]amino}phenyl)pyridin-2-yl]-2,8-diazaspiro[4.5]decan-1-one], the IC50 is 100 to 1000 nM.

Turning to `Cc1cc(Nc2nccc(C(F)(F)F)n2)cc(-c2ccnc(NCC3CCC(=O)N3)c2)c1` (centres unmarked) [Example 15.32, 5-({[4-(3-methyl-5-{[4-(trifluoromethyl)pyrimidin-2-yl]amino}phenyl)pyridin-2-yl]amino}methyl)pyrrolidin-2-one], the IC50 was under 100 nM. The figure for `Cc1cc(Nc2ncc(F)c(C)n2)cc(-c2ccc(C(C)(O)C3CCC(C(=O)O)CC3)nc2)c1` (single isomer, unassigned) [Example 9.83, trans-4-[(1R or 1S)-1-(5-{3-[(5-fluoro-4-methylpyrimidin-2-yl)amino]-5-methylphenyl}pyridin-2-yl)-1-hydroxyethyl]cyclohexanecarboxylic acid] is under 100 nM. Turning to `Cc1cc(Nc2nccc(C(F)(F)F)n2)cc(-c2ccc(N3CCCNC(=O)C3)nc2)c1` [Example 2.70, 4-[5-(3-methyl-5-{[4-(trifluoromethyl)pyrimidin-2-yl]amino}phenyl)pyridin-2-yl]-1,4-diazepan-2-one], the IC50 is under 100 nM. In the case of `CCOC(=O)CCc1cccc(-c2cc(C)cc(Nc3nccc(C)n3)c2)n1` [Example 2.32, ethyl 3-(6-{3-methyl-5-[(4-methylpyrimidin-2-yl)amino]phenyl}pyridin-2-yl)propanoate] it was 1000 to 10000 nM. As to `COC(=O)CS(=O)(=O)Nc1ccc(-c2cc(C)cc(Nc3nccc(C(F)(F)F)n3)c2)cn1` [Example 8.1, Methyl {[5-(3-methyl-5-{[4-(trifluoromethyl)pyrimidin-2-yl]amino}phenyl)pyridin-2-yl]sulfamoyl}acetate], the IC50 was under 100 nM. In the case of `Cc1cc(Nc2nccc(C(F)(F)F)n2)cc(-c2ccnc(NCc3cncn3C)c2)c1` [Example 15.38, N-[3-methyl-5-(2-{[(1-methyl-1H-imidazol-5-yl)methyl]amino}pyridin-4-yl)phenyl]-4-(trifluoromethyl)pyrimidin-2-amine] it was 100 to 1000 nM. The figure for `Cc1cc(Nc2nccc(C(F)(F)F)n2)cc(-c2cncc(C(=O)NCC(O)CO)c2)c1` (centres unmarked) [Example 15.90, N-(2,3-dihydroxypropyl)-5-(3-methyl-5-{[4-(trifluoromethyl)pyrimidin-2-yl]amino}phenyl)pyridine-3-carboxamide] is under 100 nM.
